Source: patent US11040981B2, “Pyrrolotriazine compounds and methods of inhibiting TAM kinases” (Syros Pharmaceuticals, Inc., priority 2017, dated 2021)

Tests used:
FLT3 = biological target: T1, FLT3 (Homo sapiens, UniProt P36888); assay: TR-FRET kinase activity assay, FLT3; type: biochemical; details: ATP at Km, 60 minutes
T1 sequence (P36888 27-993): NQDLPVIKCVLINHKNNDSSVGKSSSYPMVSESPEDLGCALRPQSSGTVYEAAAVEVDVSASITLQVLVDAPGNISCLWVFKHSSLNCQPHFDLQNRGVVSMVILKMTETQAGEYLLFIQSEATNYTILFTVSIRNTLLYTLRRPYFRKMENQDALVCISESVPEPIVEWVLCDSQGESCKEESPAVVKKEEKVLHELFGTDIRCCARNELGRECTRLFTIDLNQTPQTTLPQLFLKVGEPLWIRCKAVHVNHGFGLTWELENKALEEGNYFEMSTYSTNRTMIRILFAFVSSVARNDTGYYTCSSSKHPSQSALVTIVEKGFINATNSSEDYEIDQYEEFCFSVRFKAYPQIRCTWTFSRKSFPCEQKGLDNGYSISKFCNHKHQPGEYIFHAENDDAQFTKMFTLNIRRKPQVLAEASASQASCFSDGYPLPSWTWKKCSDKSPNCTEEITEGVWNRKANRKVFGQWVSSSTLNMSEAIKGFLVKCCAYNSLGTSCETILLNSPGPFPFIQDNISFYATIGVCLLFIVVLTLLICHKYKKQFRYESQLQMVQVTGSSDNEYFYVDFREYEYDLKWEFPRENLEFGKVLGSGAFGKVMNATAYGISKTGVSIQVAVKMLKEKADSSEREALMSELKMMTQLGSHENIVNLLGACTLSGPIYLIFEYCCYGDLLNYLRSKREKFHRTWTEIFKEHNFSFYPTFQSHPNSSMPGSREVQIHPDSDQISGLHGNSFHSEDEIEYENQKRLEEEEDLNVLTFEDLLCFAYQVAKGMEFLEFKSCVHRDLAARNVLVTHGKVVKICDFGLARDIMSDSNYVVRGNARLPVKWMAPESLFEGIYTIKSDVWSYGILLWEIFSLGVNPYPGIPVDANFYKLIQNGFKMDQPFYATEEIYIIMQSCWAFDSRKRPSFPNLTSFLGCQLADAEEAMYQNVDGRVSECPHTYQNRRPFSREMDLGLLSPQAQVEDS
Experimental: (§1) IC50 values for compound inhibition of AXL, FLT3, MERTK and TYRO3 activity were determined by using a TR-FRET activity assay. A polypeptide substrate with a fluorescent label is phosphorylated on a tyrosine by each enzyme, where the now phosphorylated product is bound by a Europium-labeled antibody specific to that phosphorylation site. The proximity between the antibody and the substrate gives a signal known as TR-FRET. As the enzyme is inhibited by compound, less phosphorylated peptide product is made causing a decrease in overall signal.
(§2) Activity assays were performed in a 384-well, small volume, black microplates in an active enzyme volume of 10 μL and final developed volume of 20 μL. Final assay conditions are 50 mM HEPES pH 7.5, 10 mM MgCl2, 1 mM EGTA, 0.01% Brij 35 and 1 mM DTT all at RT. Enzyme, substrate labeled peptide and compound are mixed, and then the reaction is initiated with the addition of ATP at Km concentration for each enzyme. The reaction is allowed to run 60 minutes and then quenched with a 12.5 mM EDTA (ethylenediamine tetraacetic acid) solution. The plate is then developed with the addition of Europium labeled antibody for a final volume of 20 μL and is then incubated for 30 minutes in darkness. Plates are read in a Pherastar plate reader. Data is analyzed in GraphPad PRISM.
(§3) The results of these assays are shown in Table 1, below, wherein “No.” designates compound number (FIG. 1); “A” represents a value of ≤100 nM; “B” a value of >100 nM and ≤1 μM; “C” a value of >1 μM and ≤10 μM; “D” a value of >10 μM; “ND” is not determined. The ratio of Mer to FLT3 is calculated as follows: FLT3 IC50/Mer IC50. “+” represents a ratio of >2.0 and <10; “++” represents a ratio of between 10 and 100; and “+++” represents a ratio of >100.

TYRO3 = biological target: T2, TYRO3 (Homo sapiens, UniProt Q06418); assay: TR-FRET kinase activity assay, TYRO3; type: biochemical; details: ATP at Km, 60 minutes
T2 sequence (Q06418 41-890): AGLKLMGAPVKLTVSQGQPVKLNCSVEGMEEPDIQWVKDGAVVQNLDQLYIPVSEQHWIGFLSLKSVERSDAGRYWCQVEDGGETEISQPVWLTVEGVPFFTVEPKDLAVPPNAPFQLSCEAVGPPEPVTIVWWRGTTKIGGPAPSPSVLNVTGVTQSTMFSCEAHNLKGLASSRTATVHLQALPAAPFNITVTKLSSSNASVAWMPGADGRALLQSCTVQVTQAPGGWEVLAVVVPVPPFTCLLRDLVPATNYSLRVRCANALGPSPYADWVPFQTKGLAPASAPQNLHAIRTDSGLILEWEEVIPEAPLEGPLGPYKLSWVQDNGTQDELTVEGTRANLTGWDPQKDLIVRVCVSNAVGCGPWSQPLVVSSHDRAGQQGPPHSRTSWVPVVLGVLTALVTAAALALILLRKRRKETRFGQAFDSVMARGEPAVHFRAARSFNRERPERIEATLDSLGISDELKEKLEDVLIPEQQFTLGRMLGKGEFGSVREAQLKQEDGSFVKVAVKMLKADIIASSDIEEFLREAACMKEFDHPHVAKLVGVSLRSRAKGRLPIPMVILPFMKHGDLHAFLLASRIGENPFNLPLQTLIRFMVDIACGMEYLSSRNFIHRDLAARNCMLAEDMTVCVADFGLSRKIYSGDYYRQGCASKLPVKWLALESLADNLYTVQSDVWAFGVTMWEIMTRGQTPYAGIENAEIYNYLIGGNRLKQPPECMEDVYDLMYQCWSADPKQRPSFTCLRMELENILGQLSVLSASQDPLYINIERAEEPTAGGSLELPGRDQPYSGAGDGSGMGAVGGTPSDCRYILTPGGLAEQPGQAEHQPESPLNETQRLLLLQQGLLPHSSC
Experimental: as §1, §2, §3

CCCCCC(C)Nc1ncc2c(C3=CCC(C(=O)N4CCOCC4)CC3)cc(C3CCC(O)CC3)n2n1 (mixture of isomers) [Compound 110]
IC50 (FLT3): 100 to 1000 nM | IC50 (TYRO3): ≤ 100 nM

CCCCC[C@H](C)Nc1ncc2c(-c3ccc(CN4CCN(C)CC4)cc3)cc([C@H]3CC[C@H](O)CC3)n2n1 [Compound 104]
IC50 (FLT3): 100 to 1000 nM | IC50 (TYRO3): ≤ 100 nM

CCCCC[C@H](C)Nc1ncc2c(-c3ccc(CN4CCN(C)CC4)cc3)cc([C@H]3CC[C@@H](O)CC3)n2n1 [Compound 105]
IC50 (FLT3): 100 to 1000 nM | IC50 (TYRO3): ≤ 100 nM

CCCCC[C@H](C)Nc1ncc2c(NC3CCN(C)CC3)cc([C@H]3CC[C@H](O)CC3)n2n1 [Compound 107]
IC50 (FLT3): 100 to 1000 nM | IC50 (TYRO3): ≤ 100 nM

CCCCC[C@H](C)Nc1ncc2c([C@H]3CC[C@H](C(=O)N4CCOCC4)CC3)cc([C@H]3CC[C@H](O)CC3)n2n1 [Compound 108]
IC50 (FLT3): 100 to 1000 nM | IC50 (TYRO3): 100 to 1000 nM

CCCCC[C@H](C)Nc1ncc2c([C@H]3CC[C@@H](C(=O)N4CCOCC4)CC3)cc([C@H]3CC[C@H](O)CC3)n2n1 [Compound 109, ((cis)-4-(2-((S)-heptan-2-ylamino)-7-((trans)-4-hydroxycyclohexyl)pyrrolo[2,1-f][1,2,4]triazin-5-yl)cyclohexyl)(morpholino)methanone]
IC50 (FLT3): 100 to 1000 nM | IC50 (TYRO3): ≤ 100 nM

COCC(C)Nc1ncc2c(-c3ccc4nccn4c3)cc(C3CCC(O)CC3)n2n1 (centres unmarked) [Compound 193]
IC50 (FLT3): 1000 to 10000 nM | IC50 (TYRO3): ≤ 100 nM

COC[C@H](C)Nc1ncc2c(-c3cncc(S(C)(=O)=O)c3)cc([C@H]3CC[C@H](O)CC3)n2n1 [Compound 194]
IC50 (FLT3): 1000 to 10000 nM | IC50 (TYRO3): ≤ 100 nM

COC[C@H](C)Nc1ncc2c(-c3cncc(F)c3)cc([C@H]3CC[C@H](O)CC3)n2n1 [Compound 195]
IC50 (FLT3): 1000 to 10000 nM | IC50 (TYRO3): ≤ 100 nM

COC[C@H](C)Nc1ncc2c(-c3ccc(C(=O)N4CCCC4)cc3)cc([C@H]3CC[C@H](O)CC3)n2n1 [Compound 196]
IC50 (FLT3): 100 to 1000 nM | IC50 (TYRO3): ≤ 100 nM

COC[C@H](C)Nc1ncc2c(-c3ccc(C(=O)N4CCS(=O)(=O)CC4)cc3)cc([C@H]3CC[C@H](O)CC3)n2n1 [Compound 197]
IC50 (FLT3): 100 to 1000 nM | IC50 (TYRO3): ≤ 100 nM

COCC(C)Nc1ncc2c(-c3ccc(-c4nnc(C)o4)cc3)cc(C3CCC(O)CC3)n2n1 (centres unmarked) [Compound 198]
IC50 (FLT3): 100 to 1000 nM | IC50 (TYRO3): ≤ 100 nM

COC[C@H](C)Nc1ncc2c(-c3cncc(C#N)c3)cc([C@H]3CC[C@H](O)CC3)n2n1 [Compound 201]
IC50 (FLT3): 1000 to 10000 nM | IC50 (TYRO3): ≤ 100 nM

CC(Nc1ncc2c(-c3ccc(CN4CCOCC4)cc3)cc(C3CCC(O)CC3)n2n1)C(F)(F)F (centres unmarked) [Compound 202]
IC50 (FLT3): 100 to 1000 nM | IC50 (TYRO3): ≤ 100 nM

C[C@@H](CC(F)(F)F)Nc1ncc2c(-c3ccc(CN4CCOCC4)cc3)cc([C@H]3CC[C@H](O)CC3)n2n1 [Compound 203]
IC50 (FLT3): ≤ 100 nM | IC50 (TYRO3): ≤ 100 nM

C[C@H](Nc1ncc2c(-c3ccc(CN4CCOCC4)cc3)cc([C@H]3CC[C@H](O)CC3)n2n1)[C@H]1CCCO1 [Compound 204]
IC50 (FLT3): 1000 to 10000 nM | IC50 (TYRO3): 100 to 1000 nM

C[C@H](Nc1ncc2c(-c3ccc(CN4CCOCC4)cc3)cc([C@H]3CC[C@H](O)CC3)n2n1)[C@@H]1CCCO1 [Compound 205]
IC50 (FLT3): 1000 to 10000 nM | IC50 (TYRO3): ≤ 100 nM

COC[C@H](C)Nc1ncc2c(-c3cnn(C(C)(C)C)c3)cc([C@H]3CC[C@H](O)CC3)n2n1 [Compound 206]
IC50 (FLT3): 1000 to 10000 nM | IC50 (TYRO3): ≤ 100 nM

COC[C@H](C)Nc1ncc2c(-c3cnn(C(F)F)c3)cc([C@H]3CC[C@H](O)CC3)n2n1 [Compound 207]
IC50 (FLT3): 100 to 1000 nM | IC50 (TYRO3): ≤ 100 nM

COC[C@H](C)Nc1ncc2c(-c3ccn(C)n3)cc([C@H]3CC[C@H](O)CC3)n2n1 [Compound 208]
IC50 (FLT3): 1000 to 10000 nM | IC50 (TYRO3): ≤ 100 nM

COCCn1cc(-c2cc([C@H]3CC[C@H](O)CC3)n3nc(N[C@@H](C)COC)ncc23)cn1 [Compound 209]
IC50 (FLT3): 100 to 1000 nM | IC50 (TYRO3): ≤ 100 nM

COC[C@H](C)Nc1ncc2c(-c3cccc4c3CNC4=O)cc([C@H]3CC[C@H](O)CC3)n2n1 [Compound 210]
IC50 (FLT3): 1000 to 10000 nM | IC50 (TYRO3): ≤ 100 nM

COCC[C@@H](C)Nc1ncc2c(-c3ccc(CN4CCOCC4)cc3)cc([C@H]3CC[C@H](O)CC3)n2n1 [Compound 212]
IC50 (FLT3): 1000 to 10000 nM | IC50 (TYRO3): 100 to 1000 nM

Cc1cc(-c2cc([C@H]3CC[C@H](O)CC3)n3nc(N[C@@H](C)CC(F)(F)F)ncc23)ccn1 [Compound 213]
IC50 (FLT3): ≤ 100 nM | IC50 (TYRO3): ≤ 100 nM

CC(C)OC[C@H](C)Nc1ncc2c(-c3ccc(CN4CCOCC4)cc3)cc([C@H]3CC[C@H](O)CC3)n2n1 [Compound 214]
IC50 (FLT3): 1000 to 10000 nM | IC50 (TYRO3): ≤ 100 nM

Cc1cc(-c2cc([C@H]3CC[C@H](O)CC3)n3nc(N[C@@H](C)COC(C)C)ncc23)ccn1 [Compound 215]
IC50 (FLT3): 1000 to 10000 nM | IC50 (TYRO3): ≤ 100 nM

C[C@@H](CC1CC1)Nc1ncc2c(-c3ccc(CN4CCN(C)CC4)cc3)cc([C@H]3CC[C@H](O)CC3)n2n1 [Compound 216]
IC50 (FLT3): ≤ 100 nM | IC50 (TYRO3): ≤ 100 nM

COC[C@H](C)Nc1ncc2c(-c3cccc(CN4CCOCC4)c3)cc([C@H]3CC[C@H](O)CC3)n2n1 [Compound 217]
IC50 (FLT3): 100 to 1000 nM | IC50 (TYRO3): ≤ 100 nM

COC[C@H](C)Nc1ncc2c(-c3cccc(CN4CCN(C)CC4)c3)cc([C@H]3CC[C@H](O)CC3)n2n1 [Compound 218]
IC50 (FLT3): 100 to 1000 nM | IC50 (TYRO3): ≤ 100 nM

COC[C@H](C)Nc1ncc2c(-c3cncc(CN4CCOCC4)c3)cc([C@H]3CC[C@H](O)CC3)n2n1 [Compound 219]
IC50 (FLT3): 1000 to 10000 nM | IC50 (TYRO3): ≤ 100 nM

COC[C@H](C)Nc1ncc2c(-c3cnn(Cc4cccnc4)c3)cc([C@H]3CC[C@H](O)CC3)n2n1 [Compound 220]
IC50 (FLT3): 100 to 1000 nM | IC50 (TYRO3): ≤ 100 nM

COCC(C)Nc1ncc2c(-c3cnn(C4COC4)c3)cc(C3CCC(O)CC3)n2n1 (centres unmarked) [Compound 221]
IC50 (FLT3): 100 to 1000 nM | IC50 (TYRO3): ≤ 100 nM

COC[C@H](C)Nc1ncc2c(-c3cnn(CCC#N)c3)cc([C@H]3CC[C@H](O)CC3)n2n1 [Compound 222]
IC50 (FLT3): 100 to 1000 nM | IC50 (TYRO3): ≤ 100 nM

COC[C@H](C)Nc1ncc2c(-c3cccc(CN4CCC(F)(F)C4)c3)cc([C@H]3CC[C@H](O)CC3)n2n1 [Compound 223]
IC50 (FLT3): 1000 to 10000 nM | IC50 (TYRO3): ≤ 100 nM
